The record followed here is patent US10519147B2 (Merck Sharp & Dohme Corp., priority 2015, dated 2019).

Structures are written as SMILES.

Test [1] deals with T1, human Nav1.5 (Homo sapiens, UniProt Q14524).
T1 construct: expressed in transfected cells; host or cells: HEK 293
As to the kind of experiment: IonWorks Quattro automated patch-clamp, Nav1.5 (selectivity against Nav1.7). Type of test: cell-based. The settings on record: IonWorks measurement, HEK 293 cells, inactivated state block. Here is the method:
(§1) Compounds were tested on human Nav1.7 and Nav1.5 channels stably expressed in HEK 293 cells. […] Cells were sealed on a planar substrate using the Population Patch […] (PPC) technology. Electrical access was obtained using both nystatin and amphotericin. A double-pulse protocol was used for the determination of IC50 values for inactivated state block. Nav1.7 and Nav1.5 expressing cells were voltage clamped at −100 mV and −110 mV, respectively. A depolarizing prepulse to −10 mV (Nav1.7) or −30 mV (Nav1.5) for 1000 ms followed by a 10 ms repolarization to −100 mV (Nav1.7) or −110 mV (Nav1.5) was given to generate fractional channel inactivation of 50%, followed by a 10 ms test pulse to −10 mV (Nav1.7) or −30 mV (Nav1.5) to measure peak current in control conditions and after compound addition. The following recording solutions were used (mM). External: 150 NaCl, 2 CaCl2, 5 KCl, 1 Mg Cl2, 10 HEPES, 12 Dextrose; internal: 120 CsF, 30 CsCl, 10 EGTA, 5 HEPES, 5 NaF, 2 MgCl2.
(§2) For all electrophysiology experiments, offline analysis was used to determine percent inhibition as a function of drug concentration. IC50 values were determined by fitting to the Hill equation.

The target of test [2] is T2, human Nav1.7 (Homo sapiens, UniProt Q15858).
T2 construct: expressed in transfected cells; host or cells: HEK 293
Kind of test: IonWorks Quattro automated patch-clamp, inactivated state block of Nav1.7. The class given is cell-based. The settings on record: channels stably expressed in HEK 293 cells; double-pulse protocol, inactivated state block; read-out: potency for the Nav 1.7 sodium ion channel (IC50, as measured by IonWorks). On the procedure: as §1, §2
A general note: Patch clamp records ionic current or voltage across a cell membrane.

T2 sequence (Q15858 whole entry): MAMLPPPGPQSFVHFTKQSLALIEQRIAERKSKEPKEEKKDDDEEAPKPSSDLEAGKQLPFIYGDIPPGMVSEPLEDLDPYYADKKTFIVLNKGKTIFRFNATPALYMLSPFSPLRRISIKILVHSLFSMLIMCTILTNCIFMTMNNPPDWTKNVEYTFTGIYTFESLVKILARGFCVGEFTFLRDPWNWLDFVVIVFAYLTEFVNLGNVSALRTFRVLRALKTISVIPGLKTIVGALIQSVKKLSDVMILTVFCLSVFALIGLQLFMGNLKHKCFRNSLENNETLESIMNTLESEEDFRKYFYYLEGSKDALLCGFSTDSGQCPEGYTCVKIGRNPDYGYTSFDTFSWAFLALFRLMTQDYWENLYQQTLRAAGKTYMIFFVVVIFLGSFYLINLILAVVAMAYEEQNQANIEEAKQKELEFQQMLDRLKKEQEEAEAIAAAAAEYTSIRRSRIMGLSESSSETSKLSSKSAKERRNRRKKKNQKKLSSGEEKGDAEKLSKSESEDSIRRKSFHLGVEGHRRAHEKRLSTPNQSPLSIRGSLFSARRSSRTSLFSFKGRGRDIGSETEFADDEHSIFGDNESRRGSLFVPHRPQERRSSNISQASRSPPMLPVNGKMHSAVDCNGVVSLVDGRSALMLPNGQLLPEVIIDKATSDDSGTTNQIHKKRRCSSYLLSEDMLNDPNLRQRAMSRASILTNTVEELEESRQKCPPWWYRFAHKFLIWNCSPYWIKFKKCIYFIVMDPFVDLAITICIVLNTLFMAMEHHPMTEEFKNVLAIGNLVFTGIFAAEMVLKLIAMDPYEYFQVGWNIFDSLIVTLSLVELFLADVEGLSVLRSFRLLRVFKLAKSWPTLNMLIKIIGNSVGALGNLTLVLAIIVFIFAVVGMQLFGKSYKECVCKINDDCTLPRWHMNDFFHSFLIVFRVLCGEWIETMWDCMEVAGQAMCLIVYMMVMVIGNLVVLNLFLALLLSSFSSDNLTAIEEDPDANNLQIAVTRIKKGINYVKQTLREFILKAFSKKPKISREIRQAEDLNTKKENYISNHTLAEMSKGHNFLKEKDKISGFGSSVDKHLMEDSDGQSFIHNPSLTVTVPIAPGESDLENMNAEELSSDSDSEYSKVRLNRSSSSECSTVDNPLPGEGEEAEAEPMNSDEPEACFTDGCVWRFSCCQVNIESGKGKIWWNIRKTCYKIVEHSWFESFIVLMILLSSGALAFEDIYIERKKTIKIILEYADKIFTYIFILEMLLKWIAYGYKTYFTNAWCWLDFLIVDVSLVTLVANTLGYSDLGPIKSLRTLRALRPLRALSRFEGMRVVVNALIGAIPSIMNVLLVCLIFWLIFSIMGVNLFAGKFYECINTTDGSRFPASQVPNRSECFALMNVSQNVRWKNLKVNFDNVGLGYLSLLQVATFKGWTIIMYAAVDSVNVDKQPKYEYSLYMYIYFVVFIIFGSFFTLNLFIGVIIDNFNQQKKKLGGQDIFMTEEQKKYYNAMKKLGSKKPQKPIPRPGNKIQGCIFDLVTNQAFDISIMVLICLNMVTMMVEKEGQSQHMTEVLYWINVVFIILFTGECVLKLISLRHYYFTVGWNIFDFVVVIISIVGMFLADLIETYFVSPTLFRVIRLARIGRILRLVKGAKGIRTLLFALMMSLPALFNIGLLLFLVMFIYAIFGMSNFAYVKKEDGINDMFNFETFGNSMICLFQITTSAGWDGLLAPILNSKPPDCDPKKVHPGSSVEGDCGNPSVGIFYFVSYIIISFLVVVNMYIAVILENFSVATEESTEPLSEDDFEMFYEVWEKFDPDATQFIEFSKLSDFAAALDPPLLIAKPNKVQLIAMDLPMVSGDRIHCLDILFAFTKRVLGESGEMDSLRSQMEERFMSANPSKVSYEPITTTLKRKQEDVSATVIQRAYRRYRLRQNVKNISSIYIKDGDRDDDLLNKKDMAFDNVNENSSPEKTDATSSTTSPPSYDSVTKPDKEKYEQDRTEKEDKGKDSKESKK
T1 sequence (Q14524 whole entry): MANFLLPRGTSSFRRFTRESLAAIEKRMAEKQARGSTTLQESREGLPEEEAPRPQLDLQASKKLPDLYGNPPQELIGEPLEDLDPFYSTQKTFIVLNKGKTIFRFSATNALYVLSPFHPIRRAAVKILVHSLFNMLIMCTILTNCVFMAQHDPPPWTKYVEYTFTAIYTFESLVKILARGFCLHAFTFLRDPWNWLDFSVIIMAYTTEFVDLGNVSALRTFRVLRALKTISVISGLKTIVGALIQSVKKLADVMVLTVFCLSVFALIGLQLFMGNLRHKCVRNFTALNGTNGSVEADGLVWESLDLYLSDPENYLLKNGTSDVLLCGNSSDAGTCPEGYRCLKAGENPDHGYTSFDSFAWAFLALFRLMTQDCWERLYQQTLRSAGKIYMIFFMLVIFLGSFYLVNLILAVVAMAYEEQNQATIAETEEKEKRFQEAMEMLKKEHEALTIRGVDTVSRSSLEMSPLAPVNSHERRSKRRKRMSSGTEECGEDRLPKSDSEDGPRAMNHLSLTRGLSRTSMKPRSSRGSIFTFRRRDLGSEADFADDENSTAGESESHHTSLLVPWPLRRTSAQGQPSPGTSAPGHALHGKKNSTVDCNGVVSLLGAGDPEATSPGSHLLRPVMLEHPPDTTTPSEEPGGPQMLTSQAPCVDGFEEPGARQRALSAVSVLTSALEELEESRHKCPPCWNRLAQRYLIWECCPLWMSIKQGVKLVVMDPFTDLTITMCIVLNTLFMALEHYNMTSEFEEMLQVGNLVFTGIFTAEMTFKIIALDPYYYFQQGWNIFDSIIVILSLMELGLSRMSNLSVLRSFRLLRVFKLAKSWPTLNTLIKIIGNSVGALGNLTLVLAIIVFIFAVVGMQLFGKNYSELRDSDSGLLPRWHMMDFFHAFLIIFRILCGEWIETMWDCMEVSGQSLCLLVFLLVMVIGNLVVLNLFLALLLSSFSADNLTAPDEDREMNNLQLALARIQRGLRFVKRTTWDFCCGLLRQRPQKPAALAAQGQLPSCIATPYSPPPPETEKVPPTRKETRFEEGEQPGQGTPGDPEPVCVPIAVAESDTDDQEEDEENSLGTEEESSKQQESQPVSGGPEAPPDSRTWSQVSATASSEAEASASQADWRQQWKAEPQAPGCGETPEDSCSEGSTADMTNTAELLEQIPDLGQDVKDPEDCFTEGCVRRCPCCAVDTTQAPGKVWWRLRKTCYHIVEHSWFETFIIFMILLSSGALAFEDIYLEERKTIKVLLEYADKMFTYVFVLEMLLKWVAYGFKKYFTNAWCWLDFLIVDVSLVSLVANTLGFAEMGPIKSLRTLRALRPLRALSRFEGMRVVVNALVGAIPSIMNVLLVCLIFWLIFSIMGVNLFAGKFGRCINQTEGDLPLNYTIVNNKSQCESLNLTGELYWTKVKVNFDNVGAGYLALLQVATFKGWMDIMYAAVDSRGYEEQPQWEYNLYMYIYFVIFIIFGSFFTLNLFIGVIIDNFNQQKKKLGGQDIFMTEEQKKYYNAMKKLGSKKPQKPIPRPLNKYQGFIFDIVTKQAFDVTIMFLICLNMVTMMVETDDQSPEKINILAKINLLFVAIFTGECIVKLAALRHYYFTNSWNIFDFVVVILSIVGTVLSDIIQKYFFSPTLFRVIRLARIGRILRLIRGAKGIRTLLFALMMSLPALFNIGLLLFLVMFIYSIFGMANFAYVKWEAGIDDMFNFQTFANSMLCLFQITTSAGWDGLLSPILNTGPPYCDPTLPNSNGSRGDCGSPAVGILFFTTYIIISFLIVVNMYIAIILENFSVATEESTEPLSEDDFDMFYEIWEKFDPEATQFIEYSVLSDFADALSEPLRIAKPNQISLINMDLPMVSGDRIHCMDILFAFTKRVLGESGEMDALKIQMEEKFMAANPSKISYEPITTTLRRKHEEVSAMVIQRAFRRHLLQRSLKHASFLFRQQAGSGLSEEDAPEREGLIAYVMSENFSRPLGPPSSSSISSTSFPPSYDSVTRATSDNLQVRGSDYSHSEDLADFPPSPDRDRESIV

As usually defined, the IC50 is the concentration needed to halve the response being measured. In the case of `N[C@@H]1CCC[C@H]1NCCCCNc1cc(F)c(S(=O)(=O)Nc2ncns2)cc1F` [Ex 16-86, 4-[4-[[(1R,2R)-2-aminocyclopentyl]amino]butylamino]-2,5-difluoro-N-(1,2,4-thiadiazol-5-yl)benzenesulfonamide], the “ratio of Nav 1.7 potency:Nav 1.5 potency” value in test [1] is > 850. Moreover, the half-maximal inhibitory concentration (IC50) in test [2] is 39 nM.
For `NC1CCC1NCCCCNc1cc(F)c(S(=O)(=O)Nc2ncns2)cc1Cl` (single isomer, unassigned) [Ex 16-82, 4-[4-[[(1S,2S) or (1R,2R)-2-aminocyclobutyl]amino]butylamino]-5-chloro-2-fluoro-N-(1,2,4-thiadiazol-5-yl) benzenesulfonamide], in that order: > 10000 and 3.3 nM.
The like results for `C[C@H](CCN)NCCCCNc1cc(F)c(S(=O)(=O)Nc2ncc(F)s2)cc1Cl` [Ex 16-25, 4-[(4-{[(1R)-3-amino-1-methylpropyl]amino}butyl)amino]-5-chloro-2-fluoro-N-(5-fluoro-1,3-thiazol-2-yl)-benzenesulfonamide] were, in that order, > 1270 and 26 nM.
On to `C[C@@H](N)CNCCCCNc1cc(F)c(S(=O)(=O)Nc2ncns2)cc1Br` [Ex 16-99, 4-[4-[[(2R)-2-aminopropyl]amino]butylamino]-5-bromo-2-fluoro-N-(1,2,4-thiadiazol-5-yl)benzenesulfonamide], for which the “ratio of Nav 1.7 potency:Nav 1.5 potency” value in test [1] was 3900. The IC50 in test [2] is 5.9 nM.
`NCCNCCCCNc1cc(F)c(S(=O)(=O)Nc2ncc(F)s2)cc1Cl` [Ex 16-57, 4-({4-[(2-aminoethyl)-amino]butyl}amino)-5-chloro-2-fluoro-N-(5-fluoro-1,3-thiazol-2-yl) benzene-sulfonamide]: in test [1], the “ratio of Nav 1.7 potency:Nav 1.5 potency” value is > 4400. Further, the IC50 in test [2] was found to be 7.5 nM.
As to `O=S(=O)(Nc1nccs1)c1cc(Cl)c(NCCCCNCC[C@H]2CCCN2)cc1F` [Ex 16-14, 5-chloro-2-fluoro-4-{[4-({2-[(2R)-pyrrolidin-2-yl]ethyl}-amino)-butyl]-amino}-N-1,3-thiazol-2-yl-benzenesulfonamide], the “ratio of Nav 1.7 potency:Nav 1.5 potency” value in test [1] is recorded as > 846. The IC50 in test [2] is 39 nM.
For `NC1CCC1NCCCCNc1cc(F)c(S(=O)(=O)Nc2ncns2)cc1Cl` (single isomer, unassigned) [Ex 16-83, 4-[4-[[(1R,2R) or (1S,2S)-2-aminocyclobutyl]amino]butylamino]-5-chloro-2-fluoro-N-(1,2,4-thiadiazol-5-yl)benzenesulfonamide], in that order: > 7020 and 4.7 nM.
The like results for `N[C@@H]1CCC[C@H]1NCCCCNc1cc(F)c(S(=O)(=O)Nc2ncns2)cc1Cl` [Ex 12-07, 4-[(4-{[(1R,2R)-2-aminocyclo-pentyl]amino}butyl)amino]-5-chloro-2-fluoro-N-1,2,4-thiadiazol-5-yl-benzene-sulfonamide] were, in that order, > 5500 and 6 nM.
For `C[C@@H](N)CCNCCCCNc1cc(F)c(S(=O)(=O)Nc2ncc(F)s2)cc1Cl` [Ex 16-30, 4-[(4-{[(3R)-3-amino-butyl]amino}butyl)amino]-5-chloro-2-fluoro-N-(5-fluoro-1,3-thiazol-2-yl)benzene-sulfonamide], in that order: > 2357 and 14 nM.
As to `N[C@H]1CCC[C@@H]1NCCCCNc1cc(F)c(S(=O)(=O)Nc2ncc(F)s2)cc1Cl` [Ex 16-71, 4-[(4-{[(1S,2S)-2-aminocyclopentyl]amino}butyl)amino]-5-chloro-2-fluoro-N-(5-fluoro-1,3-thiazol-2-yl)benzenesulfonamide], in test [1], the “ratio of Nav 1.7 potency:Nav 1.5 potency” value is > 4710. Further, the IC50 in test [2] was determined as 7 nM.
Take `C[C@@H](N)CNCCCCNc1cc(F)c(S(=O)(=O)Nc2ncc(F)s2)cc1Cl` [Ex 16-06, 4-[(4-{[(1R,2R)-2-aminopropyl]amino}-butyl)amino]-5-chloro-2-fluoro-N-(5-fluoro-1,3-thiazol-2-yl)benzene-sulfonamide]: the “ratio of Nav 1.7 potency:Nav 1.5 potency” value in test [1] is > 4070. In addition, in test [2], the IC50 came to 8.1 nM.
